ChEMBL document CHEMBL5365420, “Kinetics, Thermodynamics, and Structural Effects of Quinoline-2-Carboxylates, Zinc-Binding Inhibitors of New Delhi Metallo-β-lactamase-1 Re-sensitizing Multidrug-Resistant Bacteria for Carbapenems” (J Med Chem, 2023)
Converted amounts (≈) assume the structure as drawn.

Assays:
Type in all cases: functional
Escherichia coli [1] = test: Antibacterial activity against clinical isolate Escherichia coli ST1012/10 expressing blaNDM-1 co-expressing blaTEM-1/blaCTX-M-15/blaOXA-1 and blaOXA-2 assessed as inhibition of bacterial growth measured after 20 hrs by broth microdilution assay
Klebsiella pneumoniae [2] = test: Antibacterial activity against clinical isolate Klebsiella pneumoniae 50/11 expressing blaNDM-1 co-expressing blaTEM-1/blaSHV-28/blaTEM-1/blaCTX-M-15 and blaOXA-1 assessed as inhibition of bacterial growth measured after 20 hrs by broth microdilution assay
Escherichia coli [3] = test: Antibacterial activity against clinical isolate Escherichia coli K12 J53-ST10 618/15 expressing blaNDM-1 assessed as inhibition of bacterial growth measured after 20 hrs by broth microdilution assay
Escherichia coli [4] = test: Antibacterial activity against clinical isolate Escherichia coli K12 J53-ST10 699/15 expressing blaNDM-1 assessed as inhibition of bacterial growth measured after 20 hrs by broth microdilution assay
Acinetobacter baumannii = test: Antibacterial activity against clinical isolate Acinetobacter baumannii IC 19/09 expressing blaNDM-1 co-expressing blaOXA-64 assessed as inhibition of bacterial growth measured after 20 hrs by broth microdilution assay
Escherichia coli [5] = test: Antibacterial activity against clinical isolate Escherichia coli 371/12 expressing blaNDM-7 co-expressing blaCTX-M-15 and blaOXA-1 assessed as inhibition of bacterial growth measured after 20 hrs by broth microdilution assay
Klebsiella pneumoniae [6] = test: Antibacterial activity against clinical isolate Klebsiella pneumoniae ST23213/19 expressing blaNDM-1 co-expressing blaOXA-48/blaSHV-11/blaCTX-M-15 and blaOXA-1 assessed as inhibition of bacterial growth measured after 20 hrs by broth microdilution assay
Escherichia coli [7] = test: Antibacterial activity against clinical isolate Escherichia coli K12 J53-ST10 696/17 expressing blaNDM-1 co-expressing blaCMY-4 assessed as inhibition of bacterial growth measured after 20 hrs by broth microdilution assay
Escherichia coli [8] = test: Antibacterial activity against clinical isolate Escherichia coli K12 J53-ST10 684/18 expressing bla-NDM-1 co-expressing bla-CMY-2 and bla-OXA-10 assessed as inhibition of bacterial growth measured after 20 hrs by broth microdilution assay
Klebsiella pneumoniae [9] = test: Antibacterial activity against clinical isolate Klebsiella pneumoniae ST1493/10 expressing blaNDM-1 co-expressing blaCMY-2like/blaTEM-1/blaCTX-M-15/blaSHV-28/blaOXA-1 and blaOXA-9 assessed as inhibition of bacterial growth measured after 20 hrs by broth microdilution assay
Klebsiella pneumoniae [10] = test: Antibacterial activity against clinical isolate Klebsiella pneumoniae 50/20 expressing blaNDM-5 co-expressing blaTEM-1 and blaSHV-1 assessed as inhibition of bacterial growth measured after 20 hrs by broth microdilution assay
Klebsiella pneumoniae [11] = test: Antibacterial activity against clinical isolate Klebsiella pneumoniae 62/07 expressing blaVIM-19 co-expressing blaSHV-1/blaCTX-M-14 and blaCMY-4 assessed as inhibition of bacterial growth measured after 20 hrs by broth microdilution assay

Compound: C[C@@H](O)[C@H]1C(=O)N2C(C(=O)O)=C(S[C@@H]3CN[C@H](C(=O)N(C)C)C3)[C@H](C)[C@H]12 [MEROPENEM]
- MIC (Escherichia coli [1]): 128 µg/mL (≈ 334 µM)
- MIC (Klebsiella pneumoniae [2]): 64 µg/mL (≈ 167 µM)
- MIC (Escherichia coli [3]): 32 µg/mL (≈ 83.4 µM)
- MIC (Escherichia coli [4]): 32 µg/mL (≈ 83.4 µM)
- MIC (Acinetobacter baumannii): > 128 µg/mL
- MIC (Escherichia coli [5]): 64 µg/mL (≈ 167 µM)
- MIC (Klebsiella pneumoniae [6]): > 128 µg/mL
- MIC (Escherichia coli [7]): 16 µg/mL (≈ 41.7 µM)
- MIC (Escherichia coli [8]): 64 µg/mL (≈ 167 µM)
- MIC (Klebsiella pneumoniae [9]): 128 µg/mL (≈ 334 µM)
- MIC (Klebsiella pneumoniae [10]): 64 µg/mL (≈ 167 µM)
- MIC (Klebsiella pneumoniae [11]): 128 µg/mL (≈ 334 µM)
